Patent US20040235785A1, “Potentiator of antitumoral agents in the treatment of cancer” (priority 2001, published 2004)

Assays:
[1] = tested on: M4BEU human melanoma cell line; test: Maximal tolerated dose in vitro (resazurin reduction test), M4BEU; assay type: cell-based; details: 48 h
Description: (§1) The human cell lines breast cancer adenocarcinoma MCF-7, prostatic adenocarcinoma PC-3, lung carcinoma A-549 and colon adenocarcinoma DLD-1 together with the mouse cell line L-929 (fibrobast) were obtained from the European Collection of Cell Cultures (ECACC, Salisbury, United Kingdom). Normal human fibroblasts were purchased from Biopredic International (Rennes, France). The M4BEU human melanoma cell line was generously supplied by Dr. J F Doré (Institut National de la Santé et de la Recherche Médicale-INSERM, Unit 218, Lyon, France). All the cell lines were grown in minimum essential medium with Earle's salts (Gibco-BRL, Paisley, Scotland) supplemented with 10% fetal calf serum (Sigma-Aldrich), 1×solution of vitamins (Gibco-BRL), 1 mM sodium pyruvate (Gibco-BRL), 1×non-essential amino acids (Gibco-BRL) and 2 mg of gentamicin base (Gibco-BRL). Cells were cultured in a humidified atmosphere at 37° C. in 5% CO2.

[2] = tested on: normal human fibroblasts; test: Maximal tolerated dose in vitro (resazurin reduction test), human fibroblast; assay type: cell-based; details: 48 h
Description: as §1

[3] = tested on: MCF-7 human breast adenocarcinoma cell line; test: Maximal tolerated dose in vitro (resazurin reduction test), MCF-7; assay type: cell-based; details: MCF-7, 48 h
Description: as §1

[4] = tested on: L-929 mouse subcutaneous connective tissue cell line; test: Maximal tolerated dose in vitro (resazurin reduction test), L-929; assay type: cell-based; details: L-929, 48 h
Description: as §1

[5] = tested on: MCF-7 cells; test: Synergistic effect in combination with paclitaxel, MCF-7; assay type: cell-based, human; details: MCF-7, β-caryophyllene combined with paclitaxel
Protocol: The resazurin reduction test (RRT) was carried out according to the protocol as described by O'Brien et al. Briefly, plates were rinsed by 200 μl PBS (37° C., Gibco) at 37° C. using an automatic microplate washer (Cell Wash™, Labsystems, Helsinki, Finland) and emptied by overturning on absorbent toweling. Then, 150 μl of a 25μg/ml solution of resazurin in MEM without Phenol red was added in each well using an automatic microvolume dispenser (Multidrop 384™ Labsystems). The plates were incubated 1 h at 37° C. in a humidified atmosphere with 5% of CO2 for fluorescence development by living cells. Fluorescence was then measured on the automated 96-well plate reader Fluoroskan Ascent FL™ (Labsystems) using an excitation wavelength of 530 nm and an emission one of 590 nm. The fluorescence is proportional to the number of living cells in the well.
Briefly, the cells were plated at a density of 5×10^3 cells per well in 96-well microplates (Nunclon™, Nunc) in 100 μl of culture medium and were allowed to adhere for 16 h before treatment. […] The proliferation of tumour cells was assessed using resazurin reduction test as described above. The synergistic effect of β-caryophyllene was determined by the comparison between the percentage of cells growth inhibition induced by the paclitaxel used alone and the one induced by the combination of paclitaxel and β-caryophyllene.

[6] = tested on: PC-3 human prostatic adenocarcinoma cell line; test: Maximal tolerated dose in vitro (resazurin reduction test), PC-3; assay type: cell-based; details: PC-3, 48 h
Description: as §1

[7] = studies performed by the National Cancer Institute; cited from earlier work
[8] = tested on: A-549 human lung carcinoma cell line; test: Maximal tolerated dose in vitro (resazurin reduction test), A-549; assay type: cell-based; details: A-549, 48 h
Description: as §1

[9] = tested on: DLD-1 human colon adenocarcinoma cell line; test: Maximal tolerated dose in vitro (resazurin reduction test), DLD-1; assay type: cell-based; details: DLD-1, 48 h
Description: as §1

[10] = tested on: normal and cancerous cell lines; test: In vitro toxicity / MTD, stated overall for the cell lines tested; assay type: cell-based
Protocol: The screening of terpene potentiators in accordance with the present invention is carried out by the evaluation of several parameters including: i) the cytotoxicity (maximal tolerated dose); and iii) the effect on the intracellular glutathione content; and iv) the synergism in combination with antitumor agents. Briefly, the cytotoxicity or the cell growth inhibition induced by the terpenes is evaluated on various cell lines in order to determine the maximal tolerated dose (MTD) or non-toxic dose. […] The cell growth is measured by the fluorescence induced by the metabolic transformation of resazurin™ in resorufin™, which is proportional to living cells (see materials and methods). […] Moreover, β-caryophyllene is not toxic in mice at >500 mg/kg. It is shown herein that β-caryophyllene is having a synergistic action on the treatment of cancer when used in combination with antitumoral agents such as paclitaxel. To assess the synergistic effect of terpenes such as β-caryophyllene, the cancer cells are treated with growing concentrations of antitumoral agents (paclitaxel) with or without terpene (β-caryophyllene).
The in vitro toxicity of β-caryophyllene has been evaluated from 5 cell lines: human adenocarcinoma, MCF-7; human prostatic adenocarcinoma, PC-3; human lung carcinoma, A-549 and human colon adenocarcinoma, DLD-1 and from human and mouse fibroblasts.
Cell survival has been evaluated after receiving an increasing dose of β-caryophyllene between 6.25 and 800 µM. It is shown in table I that β-caryophyllene is not toxic in vitro in a dose less than […].

C=C1CC/C=C(\C)CC[C@@H]2[C@@H]1CC2(C)C [β-caryophyllene]
MTD (maximal tolerated dose or maximal no toxic dose) [1]: >800 µM | MTD (maximal tolerated dose or maximal no toxic dose) [2]: >800 µM | MTD (maximal tolerated dose or maximal no toxic dose) [3]: >800 µM | MTD (maximal tolerated dose or maximal no toxic dose) [4]: >800 µM | increase of cell growth inhibition induced by paclitaxel [5]: about 40% | MTD (maximal tolerated dose or maximal no toxic dose) [6]: >800 µM | mutagenicity [7]: not mutagenic | MTD (maximal tolerated dose or maximal no toxic dose) [8]: >800 µM | MTD (maximal tolerated dose or maximal no toxic dose) [9]: >800 µM | cytotoxicity against normal and cancerous cell lines tested in vitro [10]: does not induce cytotoxicity | in vitro toxicity (cell survival) ([10]; dose less than 800, doses tested between 6.25 and 800): not toxic | MTD (higher concentration that does not induce cell growth inhibition) ([10]; various cell lines, stated overall): greater than 800 μM
